Experiment: Pharmacokinetics after intravenous and oral administration in rats
Assay type: in vivo
Settings: for CL/F / bioavailability: Rats; for CL/F: iv dosing, dose 1 mg/kg (0.5 for Ex. 1, 10, 11, 35; 0.48 for Ex. 24); for AUC(0-t) / half-life / Vd / bioavailability: rat, plasma; for AUC(0-t) / half-life / Vd: iv, 1 mg/kg; for Vd: read-out: Vss; for bioavailability: oral (p.o.) generally 5 or 10 mg/kg versus iv dosing
Experimental: The LC/MS/MS system used in the analysis consists of an Agilent 1200 Series vacuum degasser, binary pump, well-plate autosampler, thermostatted column compartment, the Agilent G6430 Triple Quadrupole Mass Spectrometer with an electrosprayionization (ESI) source. Quantitative analysis was carried out using MRM mode. The parameters for MRM transitions are in the Table A.
An Agilent XDB-C18, 2.1×30 mm, 3.5 M column was used for the analysis. 5 L of the samples were injected. Analysis condition: The mobile phase was 0.1% formic acid in water (A) and 0.1% formic acid in methanol (B). The flow rate was 0.4 mL/min. And the gradient of Mobile phase was in the Table B.
Alternatively, an Agilent 6330 series LC/MS/MS spectrometer equipped with G1312A binary pumps, a G1367A autosampler and a G1314C UV detector were used in the analysis. An ESI source was used on the LC/MS/MS spectrometer. The analysis was done in positive ion mode as appropriate and the MRM transition for each analyte was optimized using standard solution. A Capcell MP-C18 100×4.6 mm I.D., […] column (Phenomenex, Torrance, Calif., USA) was used during the analysis. The mobile phase was 5 mM ammonia acetate, 0.1% MeOH in water (A): 5 mM ammonia acetate, 0.1% MeOH in acetonitrile (B) (70:30, v/v). The flow rate was 0.6 mL/min. Column was maintained at ambient temperature. 20 μL of the samples were injected.
The compounds disclosed herein are assessed in pharmacokinetic studies in mice, rats, dogs or monkeys. The compounds are administered as a water solution, 2% HPMC+1% TWEEN®80 in water solution, 5% DMSO+5% solutol in saline, 4% MC suspension or capsule. For the intravenous administration, the animals are generally given at 1 or 2 mg/kg dose. For the oral (p.o.) dosing, mice and rats are generally given 5 or 10 mg/kg dose, and dogs and monkeys are generally given 10 mg/kg dose. The blood samples (0.3 mL) are drawn at 0.25, 0.5, 1.0, 2.0, 3.0, 4.0, 6.0, 8.0, 12 and 24 h time points or 0.083, 0.25, 0.5, 1.0, 2.0, 4.0, 6.0, 8.0 and 24 h time points and centrifuged at 3,000 or 4000 rpm for 2 to 10 min. The plasma solutions are collected, stored at −20° C. or −70° C. until analyzed by LC/MS/MS as described above.

CL/F	Structure (SMILES)	further results
70.5 mL/min/kg	CC[C@H](Nc1ncnc(N)c1-c1nnc(C)o1)c1nc2ccccc2c(=O)n1-c1ccccc1F (single isomer, unassigned) [Ex. 24]	
38.2 mL/min/kg	CC[C@H](Nc1ncnc(N)c1-c1ncn(C)n1)c1nc2cccc(Cl)c2c(=O)n1C1CC1 [Ex. 53, (S)-2-(1-((6-amino-5-(1-methyl-1H-1,2,4-triazol-3-yl)pyrimidin-4-yl)amino)-propyl)-5-chloro-3-cyclopropylquinazolin-4(3H)-one]	
71.3 mL/min/kg	CC[C@H](Nc1ncnc(N)c1-c1nnc(C)o1)c1nc2cccc(C)c2c(=O)n1-c1ccccc1 [Ex. 38, (S)-2-(1-((6-amino-5-(5-methyl-1,3,4-oxadiazol-2-yl)pyrimidin-4-yl)amino)-propyl)-5-methyl-3-phenylquinazolin-4(3H)-one]	
27.3 mL/min/kg	CC[C@H](Nc1ncnc(N)c1-c1ccn(C)n1)c1nc2cccc(Cl)c2c(=O)n1C1CC1 [Ex. 51, (S)-2-(1-((6-amino-5-(1-methyl-1H-pyrazol-3-yl)pyrimidin-4-yl)amino)propyl)-5-chloro-3-cyclopropylquinazolin-4(3H)-one]	
26.2 mL/min/kg	CC[C@H](Nc1ncnc(N)c1-c1nc(C(N)=O)n(C)n1)c1nc2cccc(Cl)c2c(=O)n1C1CC1 [Ex. 58, (S)-3-(4-amino-6-((1-(5-chloro-3-cyclopropyl-4-oxo-3,4-dihydroquinazolin-2-yl)propyl)amino)pyrimidin-5-yl)-1-methyl-1H-1,2,4-triazole-5-carboxamide]	
27.3 mL/min/kg	CC[C@H](Nc1ncnc(N)c1-c1ncnn1C)c1nc2cccc(Cl)c2c(=O)n1C1CC1 [Ex. 9, 2-((1S)-1-((6-amino-5-(1-methyl-1H-1,2,4-triazol-5-yl)pyrimidin-4-yl)amino)-propyl)-5-chloro-3-cyclopropylquinazolin-4(3H)-one]	
70.5 mL/min/kg	CC[C@H](Nc1ncnc(N)c1-c1ncn(C)n1)c1nc2cccc(C)c2c(=O)n1-c1ccccc1C (single isomer, unassigned) [Ex. 30]	
20.7 mL/min/kg	CC[C@H](Nc1ncnc(N)c1-c1nnc(C)o1)c1nc2cccc(-c3cnn(C)c3)c2c(=O)n1-c1ccccc1 [Ex. 73, (S)-2-(1-((6-amino-5-(5-methyl-1,3,4-oxadiazol-2-yl)pyrimidin-4-yl)amino)propyl)-5-(1-methyl-1H-pyrazol-4-yl)-3-phenylquinazolin-4(3H)-one]	AUC(0-t): 807 ng·h/mL; half-life: 0.85 h; Vd: 1.44 L/kg; bioavailability: 104%
59.5 mL/min/kg	CC[C@H](Nc1ncnc(N)c1C1=N[C@@H](C)CO1)c1nc2cccc(Cl)c2c(=O)n1C1CC1 [Ex. 5, 2-((S)-1-((6-amino-5-((S)-4-methyl-4,5-dihydrooxazol-2-yl)pyrimidin-4-yl)amino)propyl)-5-chloro-3-cyclopropylquinazolin-4(3H)-one]	
110 mL/min/kg	CC[C@H](Nc1ncnc(N)c1C1=N[C@@H](C)CO1)c1nc2cccc(Cl)c2c(=O)n1-c1ccccc1 [Ex. 6]	
71.8 mL/min/kg	CC[C@H](Nc1ncnc(N)c1-c1nc(C)no1)c1nc2cccc(Cl)c2c(=O)n1[C@@H]1C[C@@H]1F [Ex. 62]	
67.3 mL/min/kg	CC[C@H](Nc1ncnc(N)c1-c1ccon1)c1nc2cccc(F)c2c(=O)n1C1CC1 [Ex. 48, (S)-2-(1-((6-amino-5-(isoxazol-3-yl)pyrimidin-4-yl)amino)propyl)-3-cyclopropyl-5-fluoroquinazolin-4(3H)-one]	

The next lines start with the compound.

Structure (SMILES)	CL/F	further results
CC[C@H](Nc1ncnc(N)c1-c1nc(C)no1)c1nc2cccc(-c3cnn(C)c3)c2c(=O)n1-c1ccccc1 [Ex. 74, (S)-2-(1-((6-amino-5-(3-methyl-1,2,4-oxadiazol-5-yl)pyrimidin-4-yl)amino)propyl)-5-(1-methyl-1H-pyrazol-4-yl)-3-phenylquinazolin-4(3H)-one]	14.3 mL/min/kg	AUC(0-t): 1120 ng·h/mL; half-life: 1.56 h; Vd: 1.83 L/kg; bioavailability: 105%
CC[C@H](Nc1ncnc(N)c1-c1nc(C)no1)c1nc2cccc(C)c2c(=O)n1-c1ccccc1 [Ex. 37, (S)-2-(1-((6-amino-5-(3-methyl-1,2,4-oxadiazol-5-yl)pyrimidin-4-yl)amino)-propyl)-5-methyl-3-phenylquinazolin-4(3H)-one]	67.5 mL/min/kg	
CC[C@H](Nc1ncnc(N)c1-c1ncn(C)n1)c1nc2cccc(C)c2c(=O)n1C1CC1 [Ex. 18, (S)-2-(1-((6-amino-5-(1-methyl-1H-1,2,4-triazol-3-yl)pyrimidin-4-yl)amino)propyl)-3-cyclopropyl-5-methylquinazolin-4(3H)-one]	54.2 mL/min/kg	
CC[C@H](Nc1ncnc(N)c1-c1ncn(C)n1)c1nc2cccc(F)c2c(=O)n1C1CC1 [Ex. 26, (S)-2-(1-((6-amino-5-(1-methyl-1H-1,2,4-triazol-3-yl)pyrimidin-4-yl)amino)propyl)-3-cyclopropyl-5-fluoroquinazolin-4(3H)-one]	37 mL/min/kg	
Cc1nc(-c2c(N)ncnc2N[C@@H](C)c2nc3cccc(Cl)c3c(=O)n2C2CC2)no1 [Ex. 33, (S)-2-(1-((6-amino-5-(5-methyl-1,2,4-oxadiazol-3-yl)pyrimidin-4-yl)amino)-ethyl)-5-chloro-3-cyclopropylquinazolin-4(3H)-one]	65.5 mL/min/kg	
CC(C)c1nc(-c2c(N)ncnc2N[C@@H](C)c2nc3cccc(Cl)c3c(=O)n2C2CC2)no1 [Ex. 59, (S)-2-(1-((6-amino-5-(5-isopropyl-1,2,4-oxadiazol-3-yl)pyrimidin-4-yl)amino)ethyl)-5-chloro-3-cyclopropylquinazolin-4(3H)-one]	73.7 mL/min/kg	
CC[C@H](Nc1ncnc(N)c1-c1nc(C)no1)c1nc2ccccc2c(=O)n1-c1ccccc1F (single isomer, unassigned) [Ex. 22]	159 mL/min/kg	
CC[C@H](Nc1ncnc(N)c1-c1nc(C)co1)c1nc2cccc(C)c2c(=O)n1-c1ccccc1C (single isomer, unassigned) [Ex. 29]	130 mL/min/kg	
CC[C@H](Nc1ncnc(N)c1-c1noc(C)n1)c1nc2cccc(Cl)c2c(=O)n1-c1ccccc1 [Ex. 13, (S)-2-(1-((6-amino-5-(5-methyl-1,2,4-oxadiazol-3-yl)pyrimidin-4-yl)amino)-propyl)-5-chloro-3-phenylquinazolin-4(3H)-one]	72.5 mL/min/kg	
CC[C@H](Nc1ncnc(N)c1-c1ccccn1)c1nc2cccc(Cl)c2c(=O)n1C1CC1 [Ex. 11, (S)-2-(1-((6-amino-5-(pyridin-2-yl)pyrimidin-4-yl)amino)propyl)-5-chloro-3-cyclopropylquinazolin-4(3H)-one]	4.83 mL/min/kg	
CCc1nc(-c2c(N)ncnc2N[C@@H](C)c2nc3cccc(Cl)c3c(=O)n2C2CC2)no1 [Ex. 61, (S)-2-(1-((6-amino-5-(5-ethyl-1,2,4-oxadiazol-3-yl)pyrimidin-4-yl)amino)ethyl)-5-chloro-3-cyclopropylquinazolin-4(3H)-one]	97.5 mL/min/kg	
CC[C@H](Nc1ncnc(N)c1-c1nc(COC)n(C)n1)c1nc2cccc(Cl)c2c(=O)n1C1CC1 [Ex. 46]	55.8 mL/min/kg	
CC[C@@H](Nc1ncnc(N)c1-c1ccon1)c1nc2cccc(Cl)c2c(=O)n1C1CC1 [Ex. 49, (R)-2-(1-((6-amino-5-(isoxazol-3-yl)pyrimidin-4-yl)amino)propyl)-5-chloro-3-cyclopropylquinazolin-4(3H)-one]	85.3 mL/min/kg	
CC[C@H](Nc1ncnc(N)c1-c1ccon1)c1nc2cccc(Cl)c2c(=O)n1C1CC1 [Ex. 14, (S)-2-(1-((6-amino-5-(isoxazol-3-yl)pyrimidin-4-yl)amino)propyl)-5-chloro-3-cyclopropylquinazolin-4(3H)-one]	46.7 mL/min/kg	
CC[C@H](Nc1ncnc(N)c1-c1nnn(C)n1)c1nc2cccc(F)c2c(=O)n1-c1ccccc1 [Ex. 43, (S)-2-(1-((6-amino-5-(2-methyl-2H-tetrazol-5-yl)pyrimidin-4-yl)amino)-propyl)-5-fluoro-3-phenylquinazolin-4(3H)-one]	36.8 mL/min/kg	
CC[C@H](Nc1ncnc(N)c1-c1noc(C)n1)c1nc2cccc(F)c2c(=O)n1C1CC1 [Ex. 16, (S)-2-(1-((6-amino-5-(5-methyl-1,2,4-oxadiazol-3-yl)pyrimidin-4-yl)amino)-propyl)-3-cyclopropyl-5-fluoroquinazolin-4(3H)-one]	68.7 mL/min/kg	
CC[C@H](Nc1ncnc(N)c1-c1nnc(C)o1)c1nc2cccc(C)c2c(=O)n1C1CC1 [Ex. 20]	77.3 mL/min/kg	

— patent US9518046B2 (Calitor Sciences, LLC, priority 2015, dated 2016)
